Experimental data taken from patent US11629143B2, “HipK4 inhibitors and uses thereof” (Vibliome Therapeutics, LLC, priority 2020, dated 2023).

Tests used:
Assay in all cases: Kinase panel (mobility shift)
Type in all cases: biochemical
TYRO3 = target: T1, TYRO3 (Homo sapiens, UniProt Q06418)
T1 sequence (Q06418 41-890): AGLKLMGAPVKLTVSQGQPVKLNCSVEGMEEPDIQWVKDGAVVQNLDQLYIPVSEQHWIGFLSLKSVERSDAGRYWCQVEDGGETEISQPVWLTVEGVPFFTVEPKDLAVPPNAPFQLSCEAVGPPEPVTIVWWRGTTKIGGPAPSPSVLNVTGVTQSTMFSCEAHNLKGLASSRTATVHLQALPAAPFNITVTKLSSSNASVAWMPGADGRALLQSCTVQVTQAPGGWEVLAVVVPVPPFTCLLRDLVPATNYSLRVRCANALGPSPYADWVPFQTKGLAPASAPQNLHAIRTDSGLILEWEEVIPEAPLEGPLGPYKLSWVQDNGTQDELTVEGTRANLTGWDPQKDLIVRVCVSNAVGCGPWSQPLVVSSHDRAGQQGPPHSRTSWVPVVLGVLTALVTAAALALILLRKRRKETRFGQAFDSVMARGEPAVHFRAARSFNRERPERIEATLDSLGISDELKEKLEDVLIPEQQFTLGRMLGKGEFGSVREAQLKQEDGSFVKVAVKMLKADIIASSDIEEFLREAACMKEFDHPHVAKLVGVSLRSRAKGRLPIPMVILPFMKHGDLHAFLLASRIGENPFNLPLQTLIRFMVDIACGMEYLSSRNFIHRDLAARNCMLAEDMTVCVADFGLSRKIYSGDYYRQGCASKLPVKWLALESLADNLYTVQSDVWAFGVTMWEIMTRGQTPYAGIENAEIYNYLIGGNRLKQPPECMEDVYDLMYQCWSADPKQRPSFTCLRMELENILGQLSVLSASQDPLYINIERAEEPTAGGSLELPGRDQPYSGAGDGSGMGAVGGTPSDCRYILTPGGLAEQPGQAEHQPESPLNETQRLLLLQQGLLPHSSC
How it was run: (§1)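 Each kinase was incubated with a fluorescently labeled substrate and compound in a standard reaction mix. After the reaction was stopped, product and substrate were separated on microfluidic chips by electrophoretic mobility shift. Activity came from comparing product and substrate peak fluorescence, graded A (95% or greater), B (90%-94%) or C (80%-89%) at 5 um.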

EPH-A5 = EPH-A5 (Homo sapiens, UniProt P54756); settings: at 5 um
How it was run: as §1

EPH-A8 = target: T2, EPH-A8 (Homo sapiens, UniProt P29322)
T2 sequence (P29322 28-1005): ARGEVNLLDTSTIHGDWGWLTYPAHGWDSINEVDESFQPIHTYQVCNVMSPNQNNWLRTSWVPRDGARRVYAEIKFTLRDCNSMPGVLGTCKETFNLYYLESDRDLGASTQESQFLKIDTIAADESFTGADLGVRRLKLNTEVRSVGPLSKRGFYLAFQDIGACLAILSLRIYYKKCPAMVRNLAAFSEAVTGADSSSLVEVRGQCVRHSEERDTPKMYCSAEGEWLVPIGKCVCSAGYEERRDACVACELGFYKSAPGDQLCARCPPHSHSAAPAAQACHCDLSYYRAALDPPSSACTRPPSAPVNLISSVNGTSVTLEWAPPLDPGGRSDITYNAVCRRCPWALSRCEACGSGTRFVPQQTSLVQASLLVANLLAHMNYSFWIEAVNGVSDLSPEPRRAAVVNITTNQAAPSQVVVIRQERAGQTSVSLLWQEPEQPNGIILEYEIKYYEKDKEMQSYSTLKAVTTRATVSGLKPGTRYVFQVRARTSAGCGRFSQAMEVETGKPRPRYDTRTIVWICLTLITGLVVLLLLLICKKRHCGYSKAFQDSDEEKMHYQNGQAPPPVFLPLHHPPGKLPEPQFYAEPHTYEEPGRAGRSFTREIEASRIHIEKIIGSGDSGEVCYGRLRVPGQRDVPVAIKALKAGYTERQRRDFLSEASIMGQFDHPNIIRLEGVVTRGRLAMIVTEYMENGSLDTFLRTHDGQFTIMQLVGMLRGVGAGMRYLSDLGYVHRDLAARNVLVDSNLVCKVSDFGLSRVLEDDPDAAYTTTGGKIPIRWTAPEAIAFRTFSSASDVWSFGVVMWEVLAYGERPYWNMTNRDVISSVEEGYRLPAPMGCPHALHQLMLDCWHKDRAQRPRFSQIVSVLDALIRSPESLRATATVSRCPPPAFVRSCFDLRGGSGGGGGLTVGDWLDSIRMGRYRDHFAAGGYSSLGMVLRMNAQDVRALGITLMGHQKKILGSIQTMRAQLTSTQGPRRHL
How it was run: as §1

SRC = SRC (Homo sapiens, UniProt P12931)
How it was run: as §1

TIE2 = TIE2 (Homo sapiens, UniProt Q02763)
How it was run: as §1

EPH-A4 = EPH-A4 (Homo sapiens, UniProt P54764)
How it was run: as §1

TRKA = TRKA (Homo sapiens, UniProt P04629)
How it was run: as §1

TIE2, sequence (Q02763 23-1124, species assumed): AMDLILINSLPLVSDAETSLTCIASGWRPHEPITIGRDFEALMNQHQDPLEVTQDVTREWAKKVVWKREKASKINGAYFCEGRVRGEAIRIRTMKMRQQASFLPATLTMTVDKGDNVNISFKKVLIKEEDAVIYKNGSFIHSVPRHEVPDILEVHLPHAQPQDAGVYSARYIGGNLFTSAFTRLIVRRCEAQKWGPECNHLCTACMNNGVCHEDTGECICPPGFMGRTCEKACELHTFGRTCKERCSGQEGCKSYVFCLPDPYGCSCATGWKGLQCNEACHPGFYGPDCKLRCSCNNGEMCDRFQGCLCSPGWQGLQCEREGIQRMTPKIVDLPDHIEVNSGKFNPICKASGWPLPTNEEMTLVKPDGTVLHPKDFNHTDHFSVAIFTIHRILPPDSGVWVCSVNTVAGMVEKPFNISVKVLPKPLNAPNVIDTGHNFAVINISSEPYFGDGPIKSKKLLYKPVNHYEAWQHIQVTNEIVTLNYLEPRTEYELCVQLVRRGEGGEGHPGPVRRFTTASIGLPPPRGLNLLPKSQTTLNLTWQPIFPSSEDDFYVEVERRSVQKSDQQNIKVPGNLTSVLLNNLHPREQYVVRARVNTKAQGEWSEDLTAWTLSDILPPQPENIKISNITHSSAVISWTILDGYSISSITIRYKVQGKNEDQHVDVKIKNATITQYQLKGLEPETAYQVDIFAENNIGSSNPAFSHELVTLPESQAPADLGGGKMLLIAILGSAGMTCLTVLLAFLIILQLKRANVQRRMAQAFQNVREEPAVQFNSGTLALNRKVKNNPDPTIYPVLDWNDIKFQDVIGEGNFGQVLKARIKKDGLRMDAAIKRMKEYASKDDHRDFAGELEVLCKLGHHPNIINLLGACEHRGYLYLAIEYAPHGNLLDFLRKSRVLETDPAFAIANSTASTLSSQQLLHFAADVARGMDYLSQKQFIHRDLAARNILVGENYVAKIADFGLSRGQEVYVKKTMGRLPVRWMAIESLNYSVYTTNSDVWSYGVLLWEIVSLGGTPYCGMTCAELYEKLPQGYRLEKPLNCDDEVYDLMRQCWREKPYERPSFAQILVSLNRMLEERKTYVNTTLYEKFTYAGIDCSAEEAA
TRKA, sequence (P04629 33-796, species assumed): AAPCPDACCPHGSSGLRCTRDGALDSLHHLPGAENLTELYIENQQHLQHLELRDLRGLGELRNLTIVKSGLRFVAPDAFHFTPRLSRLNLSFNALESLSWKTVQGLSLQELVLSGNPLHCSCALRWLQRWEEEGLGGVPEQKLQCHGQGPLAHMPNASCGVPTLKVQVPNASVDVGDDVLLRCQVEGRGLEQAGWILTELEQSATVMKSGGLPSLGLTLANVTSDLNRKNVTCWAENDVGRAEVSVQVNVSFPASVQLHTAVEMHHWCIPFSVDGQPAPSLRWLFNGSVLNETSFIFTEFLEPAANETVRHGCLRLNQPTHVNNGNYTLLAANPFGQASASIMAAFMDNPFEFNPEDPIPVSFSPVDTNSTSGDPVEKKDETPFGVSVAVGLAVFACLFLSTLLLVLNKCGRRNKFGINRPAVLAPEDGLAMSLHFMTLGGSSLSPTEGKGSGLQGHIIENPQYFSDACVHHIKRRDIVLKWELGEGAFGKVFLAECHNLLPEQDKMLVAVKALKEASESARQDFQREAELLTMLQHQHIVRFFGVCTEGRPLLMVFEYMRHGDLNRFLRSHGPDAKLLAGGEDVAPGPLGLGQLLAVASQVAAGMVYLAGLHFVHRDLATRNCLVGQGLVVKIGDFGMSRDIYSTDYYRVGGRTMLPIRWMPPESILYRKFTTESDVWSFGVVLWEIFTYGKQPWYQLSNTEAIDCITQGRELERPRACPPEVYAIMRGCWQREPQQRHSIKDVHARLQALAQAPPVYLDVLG
EPH-A4, sequence (P54764 20-986, species assumed): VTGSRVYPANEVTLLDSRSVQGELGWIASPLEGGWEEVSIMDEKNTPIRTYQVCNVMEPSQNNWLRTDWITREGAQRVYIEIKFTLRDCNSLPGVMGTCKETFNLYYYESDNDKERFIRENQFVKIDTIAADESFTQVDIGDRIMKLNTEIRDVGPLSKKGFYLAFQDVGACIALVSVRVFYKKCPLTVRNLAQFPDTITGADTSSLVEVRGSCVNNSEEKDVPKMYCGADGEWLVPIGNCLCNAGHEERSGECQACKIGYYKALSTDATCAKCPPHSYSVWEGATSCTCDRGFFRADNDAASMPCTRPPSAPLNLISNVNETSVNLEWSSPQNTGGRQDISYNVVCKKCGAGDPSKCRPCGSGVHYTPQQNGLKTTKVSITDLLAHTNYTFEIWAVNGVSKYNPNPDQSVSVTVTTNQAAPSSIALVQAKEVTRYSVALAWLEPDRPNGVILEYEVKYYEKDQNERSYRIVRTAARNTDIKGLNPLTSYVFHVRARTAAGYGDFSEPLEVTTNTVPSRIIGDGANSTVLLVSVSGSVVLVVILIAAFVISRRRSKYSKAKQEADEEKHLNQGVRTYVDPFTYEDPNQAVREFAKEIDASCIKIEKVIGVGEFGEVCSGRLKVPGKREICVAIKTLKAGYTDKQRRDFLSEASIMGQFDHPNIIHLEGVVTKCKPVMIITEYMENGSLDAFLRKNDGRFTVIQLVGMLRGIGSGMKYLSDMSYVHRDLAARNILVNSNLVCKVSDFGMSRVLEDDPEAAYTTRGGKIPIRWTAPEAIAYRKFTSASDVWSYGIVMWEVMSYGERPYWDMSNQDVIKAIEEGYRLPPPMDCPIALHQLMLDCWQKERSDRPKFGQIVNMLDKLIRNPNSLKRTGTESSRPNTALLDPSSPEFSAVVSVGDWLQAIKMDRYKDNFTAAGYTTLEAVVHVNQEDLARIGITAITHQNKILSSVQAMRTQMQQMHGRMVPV
SRC, sequence (P12931 whole entry, species assumed): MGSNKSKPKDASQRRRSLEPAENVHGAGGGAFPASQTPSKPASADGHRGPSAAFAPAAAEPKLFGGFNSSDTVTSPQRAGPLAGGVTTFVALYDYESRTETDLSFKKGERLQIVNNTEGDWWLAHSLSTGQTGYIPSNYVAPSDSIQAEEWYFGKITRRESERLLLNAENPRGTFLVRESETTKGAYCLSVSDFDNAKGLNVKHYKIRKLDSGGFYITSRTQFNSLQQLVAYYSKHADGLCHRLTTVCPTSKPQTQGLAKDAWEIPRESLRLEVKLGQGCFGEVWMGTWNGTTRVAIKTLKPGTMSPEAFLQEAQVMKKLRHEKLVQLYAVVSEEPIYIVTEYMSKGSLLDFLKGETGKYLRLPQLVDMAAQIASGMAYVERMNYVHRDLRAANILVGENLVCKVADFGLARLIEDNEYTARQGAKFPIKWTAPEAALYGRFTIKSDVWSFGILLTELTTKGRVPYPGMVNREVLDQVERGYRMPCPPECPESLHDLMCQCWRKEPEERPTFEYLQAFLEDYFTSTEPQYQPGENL
EPH-A5, sequence (P54756 25-1037, species assumed): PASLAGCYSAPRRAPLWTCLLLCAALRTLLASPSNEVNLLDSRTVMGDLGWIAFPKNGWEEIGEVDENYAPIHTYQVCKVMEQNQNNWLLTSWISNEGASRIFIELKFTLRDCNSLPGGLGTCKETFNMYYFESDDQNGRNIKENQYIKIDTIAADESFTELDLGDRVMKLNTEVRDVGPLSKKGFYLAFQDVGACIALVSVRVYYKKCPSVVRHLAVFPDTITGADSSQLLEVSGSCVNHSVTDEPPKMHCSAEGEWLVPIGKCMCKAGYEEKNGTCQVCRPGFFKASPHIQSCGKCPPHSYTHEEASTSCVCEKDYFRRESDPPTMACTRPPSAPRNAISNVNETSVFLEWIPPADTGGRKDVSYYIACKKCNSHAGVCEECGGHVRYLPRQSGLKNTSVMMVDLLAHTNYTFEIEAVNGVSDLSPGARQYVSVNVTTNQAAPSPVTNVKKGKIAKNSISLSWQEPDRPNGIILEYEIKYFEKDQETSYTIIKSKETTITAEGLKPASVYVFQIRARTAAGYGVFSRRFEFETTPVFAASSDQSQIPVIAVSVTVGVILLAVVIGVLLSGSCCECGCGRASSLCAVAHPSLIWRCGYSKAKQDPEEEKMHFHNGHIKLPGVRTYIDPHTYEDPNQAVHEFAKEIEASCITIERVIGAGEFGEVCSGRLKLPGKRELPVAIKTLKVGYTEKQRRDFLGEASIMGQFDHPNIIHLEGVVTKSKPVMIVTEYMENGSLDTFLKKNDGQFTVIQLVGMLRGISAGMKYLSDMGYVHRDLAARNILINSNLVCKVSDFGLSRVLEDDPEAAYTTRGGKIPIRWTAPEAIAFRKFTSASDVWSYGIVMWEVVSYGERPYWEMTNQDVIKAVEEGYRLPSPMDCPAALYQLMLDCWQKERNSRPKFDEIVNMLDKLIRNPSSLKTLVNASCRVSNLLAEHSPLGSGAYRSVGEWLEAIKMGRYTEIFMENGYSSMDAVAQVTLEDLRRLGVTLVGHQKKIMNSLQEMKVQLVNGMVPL

| inhibition at 5 µM (TYRO3) | inhibition of kinase activity, EPH-A5 (EPH-A5) | inhibition at 5 µM (EPH-A8) | inhibition at 5 µM (SRC) | inhibition at 5 µM (TIE2) | inhibition at 5 µM (EPH-A4) | inhibition at 5 µM (TRKA) | SMILES |
| --- | --- | --- | --- | --- | --- | --- | --- |
| 50 to 79% | E (category E is less than 50%) | < 50% | < 50% | < 50% | < 50% | < 50% | CSc1nc(C(=O)Nc2ccc(Oc3ccnc(N)c3Cl)c(F)c2)c(-c2ccc(F)cc2)o1 [Compound 1] |
| < 50% | D (category D for 50-79) | 50 to 79% | < 50% | 50 to 79% | 50 to 79% | < 50% | CSc1nc(C(=O)Nc2ccc(Oc3cc4cnn(C)c4cc3Br)c(F)c2)c(-c2ccc(F)cc2)o1 [Compound 2] |
| 90 to 94% | E (category E is less than 50%) | 50 to 79% | 80 to 89% | 50 to 79% | < 50% | 80 to 89% | CNC(=O)c1cc(Oc2ccc(NC(=O)c3nc(SC)oc3-c3ccc(F)cc3Cl)cc2)ccn1 [Compound 3] |
| 50 to 79% | E (category E is less than 50%) | 50 to 79% | < 50% | < 50% | < 50% | 50 to 79% | CNC(=O)c1cc(Oc2ccc(NC(=O)c3nc(SC)oc3-c3ccc(F)c(F)c3)cc2)ccn1 [Compound 4] |
| 80 to 89% | E (category E is less than 50%) | 50 to 79% | < 50% | < 50% | < 50% | < 50% | CNC(=O)c1cc(Oc2ccc(NC(=O)c3nc(SC)oc3-c3ccc(Cl)s3)cc2)ccn1 [Compound 5] |
| ≥ 95% | E (category E is less than 50%) | 80 to 89% | 80 to 89% | 80 to 89% | < 50% | 80 to 89% | CNC(=O)c1cc(Oc2ccc(NC(=O)c3nc(SC)oc3-c3ccc(F)cc3F)cc2)ccn1 [Compound 6] |
| < 50% | E (category E is less than 50%) | < 50% | < 50% | < 50% | < 50% | < 50% | CNC(=O)c1cc(Oc2ccc(NC(=O)c3nc(SC)oc3-c3ccc(OC)cc3)cc2)ccn1 [Compound 7] |
| ≥ 95% | C (C=80%-89% at 5 um) | 80 to 89% | 50 to 79% | 80 to 89% | 90 to 94% | 50 to 79% | CSc1nc(C(=O)Nc2ccc(Oc3ccnc(-c4cnn(C)c4)c3)c(F)c2)c(-c2ccc(F)cc2)o1 [Compound 11] |
| 90 to 94% | D (category D for 50-79) | 50 to 79% | 50 to 79% | 50 to 79% | 50 to 79% | 80 to 89% | CNC(=O)c1cc(Oc2ccc(NC(=O)c3nc(SC)oc3-c3ccc(F)cc3F)cc2F)ccn1 [Compound 12] |
| 80 to 89% | D (category D for 50-79) | 80 to 89% | < 50% | 50 to 79% | 50 to 79% | 50 to 79% | CNC(=O)c1cc(Oc2ccc(NC(=O)c3nc(S(C)(=O)=O)sc3-c3ccc(F)cc3)cc2F)ccn1 [Compound 13] |
| 80 to 89% | D (category D for 50-79) | 50 to 79% | < 50% | 50 to 79% | 50 to 79% | 80 to 89% | CNC(=O)c1cc(Oc2ccc(NC(=O)c3nc(NC)oc3-c3ccc(F)cc3)cc2F)ccn1 [Compound 14] |
